Among the data in patent publication US20260137819A1 (Radionetics Oncology, Inc., priority 2022, published 2026) are EC50 values, retold here.

Structures are written as SMILES.

By EC50 is commonly meant the midpoint of the concentration-response curve.

One experiment concerns the target T1, human follicle-stimulating hormone receptor (FSHR) (Homo sapiens, UniProt P23945).
T1 construct: host or cells: CHO-K1
T1 sequence (P23945 18-695): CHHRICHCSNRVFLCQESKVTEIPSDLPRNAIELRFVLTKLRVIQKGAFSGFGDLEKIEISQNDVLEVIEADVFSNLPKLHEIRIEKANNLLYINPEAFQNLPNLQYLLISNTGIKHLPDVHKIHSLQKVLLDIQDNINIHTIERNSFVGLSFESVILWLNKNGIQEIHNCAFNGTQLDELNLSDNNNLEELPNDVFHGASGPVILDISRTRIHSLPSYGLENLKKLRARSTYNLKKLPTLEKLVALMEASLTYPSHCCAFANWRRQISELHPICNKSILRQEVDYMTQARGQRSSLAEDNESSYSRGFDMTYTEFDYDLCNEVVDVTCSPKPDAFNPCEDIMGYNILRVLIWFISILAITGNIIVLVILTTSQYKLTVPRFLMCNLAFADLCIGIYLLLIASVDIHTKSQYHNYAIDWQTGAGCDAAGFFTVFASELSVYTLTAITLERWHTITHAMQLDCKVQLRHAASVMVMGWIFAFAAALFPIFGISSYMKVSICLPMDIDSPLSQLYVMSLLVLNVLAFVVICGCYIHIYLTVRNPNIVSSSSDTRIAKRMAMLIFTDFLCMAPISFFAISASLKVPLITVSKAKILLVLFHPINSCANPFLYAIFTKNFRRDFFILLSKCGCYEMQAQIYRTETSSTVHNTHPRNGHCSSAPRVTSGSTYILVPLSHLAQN
Put plainly: Measurement of agonist cAMP production by activation of human FSHR. The class given is cell-based. The note with it: CHO-K1 human FSHR cells, 30 minutes at 37° C., HTRF cAMP kit; read-out: hFSHR Agonist cAMP EC50. As for the experimental part: Measurement of agonist cAMP production by activation of human FSHR
Two days prior to the assay, 5,000 CHO—K1 human FSHR cells (Eurofins #95-0119C2) stably expressing the functional human follicle-stimulating hormone receptor were plated in a 96-well tissue culture-treated plate in growth media supplemented with the appropriate selection agent. […] The cells were incubated for 30 minutes at 37° C. (the final concentrations of the compound ranged from 0-10,000 nM). After the 30-minute incubation at 37° C., lysis buffer (HRTF CAMP kit, Cisbio #62AM5PEB)w as added directly to the cells and incubated for 30-minutes at room temperature. The diluted lysate was transferred and CAMP detection and visualization antibodies (HRTF CAMP kit, Cisbio #62AM5PEB) were added and incubated for 1-24 hours at room temperature. The time-resolved fluorescent signal was read with a Tecan M1000Pro (Tecan) multiplate reader. The intracellular cAMP concentrations were calculated by regression to a standard curve and were plotted vs. the concentration of the agonists. The concentration of test compound or FSH required to generate a half maximal response EC50 were calculated using standard curve-fitting methods. All data manipulations were performed using GraphPad Prism v9.3.1 (GraphPad, San Diego, CA).
In the case of `COc1cc2c(cc1-c1cccc(NC(=O)NCCNC(=O)CCOCCNC(=O)CN3CCN(CC(=O)O)CCN(CC(=O)O)CCN(CC(=O)O)CC3)c1)-c1c(c(C(=O)N3CCOCC3(C)C)nn1-c1cc(Cl)cc(Cl)c1)CO2` [Compound 10, 2,2′,2″-(10-(1-((3-(1-(3,5-dichlorophenyl)-3-(3,3-dimethylmorpholine-4-carbonyl)-7-methoxy-1,4-dihydrochromeno[4,3-c]pyrazol-8-yl)phenyl)amino)-1,6,13-trioxo-9-oxa-2,5,12-triazatetradecan-14-yl)-1,4,7,10-tetraazacyclododecane-1,4,7-triyl)triacetic acid], the EC50 is less than 10 nM.

Take `COc1cc2c(cc1-c1cccc(NC(=O)C[C@@H](N)C(=O)NC3CCN(C(=O)CN4CCN(CC(=O)O)CCN(CC(=O)O)CCN(CC(=O)O)CC4)CC3)c1)-c1c(c(C(=O)N3CCOCC3(C)C)nn1-c1cc(Cl)cc(Cl)c1)CO2` [Compound 12, (R)-2,2′,2″-(10-(2-(4-(2-amino-4-((3-(1-(3,5-dichlorophenyl)-3-(3,3-dimethylmorpholine-4-carbonyl)-7-methoxy-1,4-dihydrochromeno|4,3-clpyrazol-8-yl)phenyl)amino)-4-oxobutanamido)piperidin-1-yl)-2-oxoethyl)-1,4,7,10-tetraazacyclododecane-1,4,7-triyl)triacetic acid]: the EC50 lay within 10 to 100 nM.

Regarding `COc1cc2c(cc1-c1cccc(NC(=O)CCOCCOCCOCCN(CCOCCOCCOCCNC(=O)CN3CCN(CC(=O)O)CCN(CC(=O)O)CCN(CC(=O)O)CC3)CCOCCOCCOCCNC(=O)CN3CCN(CC(=O)O)CCN(CC(=O)O)CCN(CC(=O)O)CC3)c1)-c1c(c(C(=O)N3CCOCC3(C)C)nn1-c1cc(Cl)cc(Cl)c1)CO2` [Compound 13], the EC50 lay within 10 to 100 nM.

As for `COc1cc2c(cc1-c1cccc(NC(=O)NCCNC(=O)C[C@H](O)C[C@H](O)CCNC(=O)CN3CCN(CC(=O)O)CCN(CC(=O)O)CCN(CC(=O)O)CC3)c1)-c1c(c(C(=O)N3CCOCC3(C)C)nn1-c1cc(Cl)cc(Cl)c1)CO2` [Compound 14, 2,2′,2″-(10-(2-(((3R,5R)-7-((2-(3-(3-(1-(3,5-dichlorophenyl)-3-(3,3-dimethylmorpholine-4-carbonyl)-7-methoxy-1,4-dihydrochromeno[4,3-c]pyrazol-8-yl)phenyl)ureido)ethyl)amino)-3,5-dihydroxy-7-oxoheptyl)amino)-2-oxoethyl)-1,4,7,10-tetraazacyclododecane-1,4,7-triyl)triacetic acid], the EC50 was less than 10 nM.

With `COc1cc2c(cc1-c1cccc(NC(=O)CCC(=O)N(CCOCCOCCC(=O)O)C3CCN(C(=O)CN4CCN(CC(=O)O)CCN(CC(=O)O)CCN(CC(=O)O)CC4)CC3)c1)-c1c(c(C(=O)N3CCOCC3(C)C)nn1-c1cc(Cl)cc(Cl)c1)CO2` [Compound 15, 2,2′,2″-(10-(2-(4-(N-(2-(2-(2-carboxyethoxy)ethoxy)ethyl)-4-((3-(1-(3,5-dichlorophenyl)-3-(3,3-dimethylmorpholine-4-carbonyl)-7-methoxy-1,4-dihydrochromeno[4,3-c]pyrazol-8-yl)phenyl)amino)-4-oxobutanamido)piperidin-1-yl)-2-oxoethyl)-1,4,7,10-tetraazacyclododecane-1,4,7-triyl)triacetic acid], the EC50 was less than 10 nM.

Turning to `COc1cc2c(cc1-c1cccc(NC(=O)CCOCCOCCOCCOCCOCCOCCNC(=O)CN3CCN(CC(=O)O)CCN(CC(=O)O)CCN(CC(=O)O)CC3)c1)-c1c(c(C(=O)N3CCOCC3(C)C)nn1-c1cc(Cl)cc(Cl)c1)CO2` [Compound 16, 2,2′,2″-(10-(24-((3-(1-(3,5-dichlorophenyl)-3-(3,3-dimethylmorpholine-4-carbonyl)-7-methoxy-1,4-dihydrochromeno[4,3-c]pyrazol-8-yl)phenyl)amino)-2,24-dioxo-6,9,12,15,18,21-hexaoxa-3-azatetracosyl)-1,4,7,10-tetraazacyclododecane-1,4,7-triyl)triacetic acid], the EC50 is 10 to 100 nM.

As for `COc1cc2c(cc1-c1cccc(NC(=O)CCOCCOCCOCCOCCOCCOCCNC(=O)CN3CCN(CC(=O)O)CCN(CC(=O)O)CCN(CC(=O)O)CC3)c1)-c1c(c(C(=O)N3CCOCC3(C)C)nn1-c1cc(Cl)cc(Cl)c1)CO2` [Compound 16A], the EC50 was less than 10 nM.

Take `COc1cc2c(cc1-c1cccc(NC(=O)CCOCCOCCOCCOCCNC(=O)CN3CCN(CC(=O)O)CCN(CC(=O)O)CCN(CC(=O)O)CC3)c1)-c1c(c(C(=O)N3CCOCC3(C)C)nn1-c1cc(Cl)cc(Cl)c1)CO2` [Compound 17, 2,2′,2″-(10-(18-((3-(1-(3,5-dichlorophenyl)-3-(3,3-dimethylmorpholine-4-carbonyl)-7-methoxy-1,4-dihydrochromeno|4,3-c|pyrazol-8-yl)phenyl)amino)-2,18-dioxo-6,9,12,15-tetraoxa-3-azaoctadecyl)-1,4,7,10-tetraazacyclododecane-1,4,7-triyl)triacetic acid]: the EC50 is less than 10 nM.

With `COc1cc2c(cc1-c1cccc(NC(=O)CCOCCOCCOCCNC(=O)CN3CCN(CC(=O)O)CCN(CC(=O)O)CCN(CC(=O)O)CC3)c1)-c1c(c(C(=O)N3CCOCC3(C)C)nn1-c1cc(Cl)cc(Cl)c1)CO2` [Compound 18, 2,2′,2″-(10-(15-((3-(1-(3,5-dichlorophenyl)-3-(3,3-dimethylmorpholine-4-carbonyl)-7-methoxy-1,4-dihydrochromeno|4,3-c|pyrazol-8-yl)phenyl)amino)-2,15-dioxo-6,9,12-trioxa-3-azapentadecyl)-1,4,7,10-tetraazacyclododecane-1,4,7-triyl)triacetic acid], the EC50 is 10 to 100 nM.

Turning to `COc1cc2c(cc1-c1cccc(NC(=O)CCOCCOCCOCCNC(=O)CN3CCN(CC(=O)O)CCN(CC(=O)O)CCN(CC(=O)O)CC3)c1)-c1c(c(C(=O)N3CCOCC3(C)C)nn1-c1cc(Cl)cc(Cl)c1)CO2` [Compound 18A], the EC50 was less than 10 nM.

As to `COc1cc2c(cc1-c1cccc(NC(=O)CCOCCOCCNC(=O)CN3CCN(CC(=O)O)CCN(CC(=O)O)CCN(CC(=O)O)CC3)c1)-c1c(c(C(=O)N3CCOCC3(C)C)nn1-c1cc(Cl)cc(Cl)c1)CO2` [Compound 19, 2,2′,2″-(10-(2-((2-(2-(3-((3-(1-(3,5-dichlorophenyl)-3-(3,3-dimethylmorpholine-4-carbonyl)-7-methoxy-1,4-dihydrochromeno[4,3-c]pyrazol-8-yl)phenyl)amino)-3-oxopropoxy)ethoxy)ethyl)amino)-2-oxoethyl)-1,4,7,10-tetraazacyclododecane-1,4,7-triyl)triacetic acid], the EC50 is less than 10 nM.

With `COc1cc2c(cc1-c1cccc(NC(=O)CCOCCNC(=O)CN3CCN(CC(=O)O)CCN(CC(=O)O)CCN(CC(=O)O)CC3)c1)-c1c(c(C(=O)N3CCOCC3(C)C)nn1-c1cc(Cl)cc(Cl)c1)CO2` [Compound 20, 2,2′,2″-(10-(2-((2-(3-((3-(1-(3,5-dichlorophenyl)-3-(3,3-dimethylmorpholine-4-carbonyl)-7-methoxy-1,4-dihydrochromeno[4,3-c]pyrazol-8-yl)phenyl)amino)-3-oxopropoxy)ethyl)amino)-2-oxoethyl)-1,4,7,10-tetraazacyclododecane-1,4,7-triyl)triacetic acid], the EC50 is less than 10 nM.

Still in this experiment, the particulars now being: hFSHR Agonist cAMP EC50, CHO-K1 human FSHR cells, 30 minutes at 37° C., HTRF cAMP kit.
Compound `COc1cc2c(cc1-c1cccc(NC(=O)CCC(=O)NC3CCN(C(=O)CN4CCN(CC(=O)O)CCN(CC(=O)O)CCN(CC(=O)O)CC4)CC3)c1)-c1c(c(C(=O)N3CCOCC3(C)C)nn1-c1cc(Cl)cc(Cl)c1)CO2` [Compound 11] registered an EC50 of less than 10 nM.

The compound `COc1cc2c(cc1-c1cccc(NC(=O)CCOCCOCCOCCOCCNC(=O)CN3CCN(CC(=O)O)CCN(CC(=O)O)CCN(CC(=O)O)CC3)c1)-c1c(c(C(=O)N3CCOCC3(C)C)nn1-c1cc(Cl)cc(Cl)c1)CO2` [Compound 17B] had an EC50 of less than 10 nM.
